Literature values, collected in US20220280453A1, “Pharmaceutical Formulation” (Klaria Pharma Holding AB, priority 2019, published 2022).
Structures can show the parent of a compound that is named as a salt.

conditions: ionized form

| SMILES | pH at which most stable in solution |
| --- | --- |
| CNC1(c2ccccc2Cl)CCCCC1=O (racemic) [Ketamine, ketamine] | around 4 |

conditions: counterions of strong acids; Shannon effective ionic radii

| SMILES | Ionic radius [Å] |
| --- | --- |
| O=S(=O)(O)O [Sulfate (SO4^2−), Sulfate] | 2.89 |
| Br [Bromide (Br^−), Bromide] | 1.96 |
| Cl [Chloride (Cl^−), Chloride] | 1.81 |
| F [Fluoride (F^−), Fluoride] | 1.33 |
| I [Iodide (I^−), Iodide] | 2.20 |
| O=[N+]([O-])O [Nitrate (NO3^−), Nitrate] | 2.62 |
